PubChem BioAssay (NCI)
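The compound was tested at five concentrations on cells cultured in 96-well plates, with a 48-hour exposure period. GI50 is the concentration that inhibits growth by half. TGI: total growth inhibition.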

Key:
Assay in all cases: NCI tumour cell line growth inhibition, 48 h
SNB-75 CNS = test system: SNB-75 CNS
EKVX NSCLC = test system: EKVX NSCLC
NCI-H460 lung = test system: NCI-H460 lung
SK-MEL-5 melanoma = test system: SK-MEL-5 melanoma
786-0 renal = test system: 786-0 renal
SK-OV-3 ovarian = test system: SK-OV-3 ovarian
HT29 colon = test system: HT29 colon
MALME-3M melanoma = test system: MALME-3M melanoma
T-47D breast = test system: T-47D breast
HS 578T breast = test system: HS 578T breast

Structure (SMILES) | TGI (SNB-75 CNS) [µM] | TGI (EKVX NSCLC) [µM] | TGI (NCI-H460 lung) [µM] | TGI (SK-MEL-5 melanoma) [µM] | TGI (786-0 renal) [µM] | TGI (SK-OV-3 ovarian) [µM] | TGI (HT29 colon) [µM] | TGI (MALME-3M melanoma) [µM] | GI50 (EKVX NSCLC) [µM] | GI50 (NCI-H460 lung) [µM] | GI50 (T-47D breast) [µM] | TGI (T-47D breast) [µM] | GI50 (SK-MEL-5 melanoma) [µM] | GI50 (786-0 renal) [µM] | GI50 (SK-OV-3 ovarian) [µM] | GI50 (HS 578T breast) [µM] | GI50 (HT29 colon) [µM] | GI50 (MALME-3M melanoma) [µM] | GI50 (SNB-75 CNS) [µM] | TGI (HS 578T breast) [µM]
COC(=O)C12C3C4C5(C(=O)OC)C(C1C35C(=O)N(C(C)C)C(C)C)C42C(=O)N(C(C)C)C(C)C (centres undefined) | > 50 | > 50 | > 50 | > 50 | > 50 | > 50 | > 50 | > 50 | – | – | – | – | – | – | – | – | – | – | – | –
O=C(/C=C/c1c(O)ccc2ccccc12)c1ccc2ccccc2c1 | > 100 | > 100 | > 100 | – | > 100 | > 100 | > 100 | > 100 | – | – | – | – | – | – | – | – | – | – | – | –
O=C(CCC(=O)Nc1cccc(Cl)c1)CC(=O)c1ccc(Cl)cc1 | > 100 | – | > 100 | – | > 100 | > 100 | > 100 | > 100 | – | – | – | – | – | – | – | – | – | – | – | –
N#C/C(=C\c1ccc(O)c(O)c1)C(N)=O | > 100 | > 100 | > 100 | – | > 100 | > 100 | > 100 | > 100 | – | – | – | – | – | – | – | – | – | – | – | –
CC1=C(C(=O)Nc2c(C)cccc2C)C(c2ccccc2Cl)C(C(=O)Nc2c(C)cccc2C)=C(C)N1 | > 100 | > 100 | > 100 | > 100 | > 100 | > 100 | > 100 | > 100 | – | – | – | – | – | – | – | – | – | – | – | –
CCN1C(=O)N(CC)C2C1NC(=S)N2/N=C/C=C/c1cccs1 (centres undefined) | – | > 100 | > 100 | 5.93 | > 100 | > 100 | > 100 | > 100 | 0.464 | 0.363 | 0.428 | > 100 | 0.274 | 0.615 | 0.339 | 0.281 | 0.352 | 0.485 | – | –
Cc1ccc(N(CSc2ccc(Cl)cc2)CSc2ccc(Cl)cc2)cc1 | 8.7 | 26 | > 100 | 2.5 | 7.66 | 19.3 | 24.1 | 18.4 | 0.542 | 0.575 | 2.92 | 18.3 | 1.18 | 1.66 | 3.29 | – | 1.85 | 3.65 | 1.39 | –
N#CC(/C(=N/NC(=O)C(=O)NN)C(=O)NC12CC3CC(CC(C3)C1)C2)c1ccccc1 (centres undefined) | > 100 | > 100 | > 100 | > 100 | > 100 | > 100 | > 100 | > 100 | – | – | – | – | – | – | – | – | – | – | – | –
CCCCCc1c(C)[nH]c(/C=C2\N=C(c3ccc[nH]3)C=C2CC)c1C | – | 0.364 | – | 0.0278 | 0.0352 | 0.383 | 0.131 | 0.187 | 0.0216 | – | 0.0187 | 0.149 | 0.0141 | < 0.01 | 0.0609 | 0.014 | < 0.01 | 0.0333 | – | 0.129
CC(C)(C)N1CC2(CCCCC2)C1=O | > 100 | > 100 | > 100 | > 100 | > 100 | > 100 | > 100 | > 100 | – | – | – | – | – | – | – | – | – | – | – | –
COc1ccc(C(=O)C(CO)Oc2ccccc2OC)cc1OC (centres undefined) | > 100 | > 100 | > 100 | > 100 | > 100 | > 100 | > 100 | > 100 | – | – | – | – | – | – | – | – | – | – | – | –
CC(=O)OCC1OC([S-])C(OC(C)=O)C(OC(C)=O)C1OC(C)=O.CC[PH+](CC)CC.CC[PH+](CC)CC.[Au].[Au] (centres undefined) | 1.16 | 0.921 | – | 0.346 | 0.401 | 3.05 | 0.989 | 0.32 | 0.405 | – | – | – | 0.132 | 0.185 | 1.68 | – | 0.319 | 0.137 | 0.249 | –
O=C(O)c1cccc(OCCO)c1 | – | > 100 | > 100 | > 100 | > 100 | > 100 | > 100 | > 100 | – | – | – | > 100 | – | – | – | – | – | – | – | > 100
CCOC(=O)C1=C(C)N(N)C(=S)NC1c1ccc(C)cc1 (centres undefined) | – | – | > 100 | 30.4 | > 100 | – | > 100 | > 100 | – | 24.4 | 23.1 | > 100 | 13.1 | > 100 | – | – | 26 | 14.4 | – | –
CN=NN(C)C(=O)NC | > 100 | – | > 100 | > 100 | > 100 | > 100 | > 100 | > 100 | – | – | – | – | – | – | – | – | – | – | – | –
O=C(/C=C/c1ccccc1)/C=C/c1ccccc1 | > 100 | – | 65.5 | > 100 | 85.5 | > 100 | 35.1 | 57.7 | – | – | – | – | – | – | – | – | – | – | – | –
Cc1[nH][nH]c(=O)c1C=Nc1ccc(-c2nc3ccccc3[nH]2)cc1 | 40.5 | 51.1 | > 100 | 36.2 | 38.3 | > 100 | – | – | 19.8 | 33.3 | – | – | 18 | 18.9 | 41.9 | 29 | – | – | 19.6 | 63.9
COC(COC(=O)N1CCN(C=O)CC1)C1=C(N2CC2)C(=O)C(C)=C(N2CC2)C1=O (centres undefined) | – | 10.9 | 0.8 | 0.7 | 0.43 | 2.11 | 0.999 | 1.53 | – | – | – | 22.4 | – | – | – | – | – | – | – | 5.17
O=c1[nH]c2cc(Cl)ccc2n1C1CCN(CCCC(c2ccc(F)cc2)c2ccc(F)cc2)CC1 | 2.73 | 3.38 | 3.14 | 2.89 | 2.79 | 3.72 | 2.16 | 4.21 | 1.45 | 1.74 | 1.83 | 3.79 | 1.55 | 1.46 | 1.82 | – | 0.766 | 1.88 | 1.27 | –
N#CC(C#N)=c1[nH]c2cccc3c2-c2c(cccc2c3=C(C#N)C#N)[nH]1 | > 100 | > 100 | > 100 | > 100 | > 100 | > 100 | > 100 | > 100 | – | – | – | – | – | – | – | – | – | – | – | –
